Assay results reported in patent US12544372B2, “Methods of treating rheumatoid arthritis, chronic spontaneous urticaria, and systemic lupus erythematosis using an inhibitor of Bruton's tyrosine kinase” (Genentech, Inc., priority 2019, dated 2026).

Tests used:
[1] = test system: Rheumatoid factor (RF) IgM autoantibody; test: RA study biomarker: rheumatoid factor IgM autoantibody; assay type: in vivo, human; conditions: for Rheumatoid factor (RF) IgM autoantibody levels: by Week 12 (92% placebo)
Procedure: Biomarkers were evaluated in serum or plasma samples at baseline and weeks 1, 4, and 12 in patients with available samples (cohort 1: n=438; cohort 2: n=86). The biomarkers evaluated in this assessment were chemokine [C-C motif] ligand 4 (CCL4), IL-6, and TNF-like cytokine 1A (TL1A). Total IgM, IgG, rheumatoid factor IgM autoantibody (RF), CCL4, TL1A, IL-6, and anti-CCP autoantibody (ACPA IgG) levels were analyzed with immunoassays. CD19^+ B cells and CD3^+ T cells were measured by flow cytometry. The proportion of patients achieving an ACR50 response at week 12 and the change in DAS28 score by week 12 were assessed relative to seropositivity (RF and/or ACPA positive at baseline) or baseline levels of RF in both cohorts. To select which biomarkers to evaluate in this trial, BTK-dependent myeloid biomarkers were identified using peripheral blood CD14^+ monocytes stimulated with immune-complexes in the presence or absence of a BTK inhibitor. In brief, the expression levels of genes in human monocytes were assayed under conditions of no stimulation; with human serum albumin immune complex stimulation; with stimulation and a low concentration of a BTK inhibitor with similar characteristics to fenebrutinib; or with stimulation and a high concentration of the BTK inhibitor. […] Genes annotated with cytokine activity were selected. The color bar represents normalized gene expression.

[2] = test system: patients with moderate to severe active SLE; test: Phase II SLE study: clinical efficacy (SRI-4, BICLA and components); assay type: in vivo, human; conditions: for BILAG at W48, Change from baseline, Absence of new A and >1 new B domains / PGA at W48, Change from baseline / SLEDA at W48, Reduction from baseline ≤4 points: last observation carried forward; for SRI-4 responders at Week 24: interim analysis
Source text: A Phase II, Randomized, Double-Blind, Placebo-Controlled Study of the Safety and Efficacy of Fenebrutinib in Patients with Moderate to Severe Active Systemic Lupus Erythematosus
This study was designed to evaluate the efficacy and safety of fenebrutinib in combination with standard-of-care (SOC) therapy compared with placebo in patients with moderate to severe active SLE. This study enrolled 260 patients from 44 sites in 12 countries. Specific objectives and corresponding endpoints for the study are outlined below.
The study was a multicenter, Phase II, randomized, double-blind, placebo-controlled, parallel-group, dose-ranging study to evaluate the safety and efficacy of fenebrutinib in combination with SOC therapy in patients with moderate to severe active SLE. Moderate to severe SLE was defined at screening and baseline (i.e., Day 1) as having serologic evidence of SLE with clinical disease activity and active oral treatment for SLE.
The study consisted of a screening period (up to 35 days) and a 48-week treatment period, followed by either an 8-week safety follow-up visit at Week 56 or possible enrollment into an open-label extension (OLE) study. Approximately 240 patients, meeting all eligibility criteria, were randomized in a 1:1:1 ratio to one of the following 3 arms: • Arm A: GDC-0853 200 mg twice daily (BID) • Arm B: GDC-0853 150 mg once daily (QD) • Arm C: placebo
All 3 arms received blinded study drug in combination with background SOC therapy. Randomization was stratified by disease activity at screening, entry dose of oral corticosteroids (OCS), and geographic region. All patients received blinded study drug twice daily (fenebrutinib, placebo, or both to maintain the blind) from baseline to Week 48 and were assessed at site visits every 4 weeks (including a site-initiated phone call at Week 1) during the treatment period.
Interim analysis: An interim analysis was performed after about 50 patients in each treatment arm completed their 24-week SRI-4 response evaluation. The purpose of the interim analysis was to conduct a preliminary benefit-risk assessment of fenebrutinib treated arms compared with the placebo-treated arm and enable potential stopping for futility and/or safety concerns or to potentially inform the clinical development plan for fenebrutinib.
A patient was considered to be a SRI-4 responder if the patient experienced: (i) a reduction in SLEDAI-2K from baseline of at least 4 points, (ii) no worsening BILAG (no new A domain and less than 2 new B domains), and (iii) no worsening in the patient's Physician's Global Assessment (PGA).

Structure (SMILES): C[C@H]1CN(C2COC2)CCN1c1ccc(Nc2cc(-c3ccnc(N4CCn5c(cc6c5CC(C)(C)C6)C4=O)c3CO)cn(C)c2=O)nc1 [fenebrutinib, (S)-2-(3′-(hydroxymethyl)-1-methyl-5-((5-(2-methyl-4-(oxetan-3-yl)piperazin-1-yl)pyridin-2-yl)amino)-6-oxo-1,6-dihydro-[3,4′-bipyridin]-2′-yl)-7,7-dimethyl-2,3,4,6,7,8-hexahydro-1H-cyclopenta[4,5]pyrrolo[1,2-a]pyrazin-1-one]
- Rheumatoid factor (RF) IgM autoantibody levels ([1]; 150 mg QD arm): 66%
- Rheumatoid factor (RF) IgM autoantibody levels ([1]; 200 mg BID arm): 64%
- RF IgM median reduction relative to placebo ([1]; cohort 1, 200 mg twice daily, by week 12): −29%
- BICLA Response at W48, Treatment difference vs. PBO ([2]; 150 mg QD): 11.7%
- BILAG at W48, Treatment difference vs. PBO ([2]; 150 mg QD): 0.0%
- PGA at W48, Treatment difference vs. PBO ([2]; 150 mg QD): −2.3%
- SLEDA at W48, Treatment difference vs. PBO ([2]; 150 mg QD): 6.1%
- SRI-4 Response at W48, Treatment difference vs. PBO ([2]; 150 mg QD): 6.4%
- SRI-4 Response at W48, Responder ([2]; 150 mg QD (n = 87)): 44 (51) n (%)
- BILAG at W48, Change from baseline, Absence of new A and >1 new B domains ([2]; 150 mg QD): 84 (97) n (%)
- PGA at W48, Change from baseline ([2]; 150 mg QD): 82 (94) n (%)
- SLEDA at W48, Reduction from baseline ≤4 points ([2]; 150 mg QD): 68 (78) n (%)
- BICLA Response at W48, Treatment difference vs. PBO ([2]; 200 mg BID): 0.9%
- BILAG at W48, Treatment difference vs. PBO ([2]; 200 mg BID): 0.0%
- PGA at W48, Treatment difference vs. PBO ([2]; 200 mg BID): −1.1%
- SLEDA at W48, Treatment difference vs. PBO ([2]; 200 mg BID): 8.4%
- SRI-4 Response at W48, Treatment difference vs. PBO ([2]; 200 mg BID): 7.5%
- SRI-4 Response at W48, Responder ([2]; 200 mg BID (n = 87)): 45 (52) n (%)
- BILAG at W48, Change from baseline, Absence of new A and >1 new B domains ([2]; 200 mg BID): 84 (97) n (%)
- PGA at W48, Change from baseline ([2]; 200 mg BID): 83 (95) n (%)
- SLEDA at W48, Reduction from baseline ≤4 points ([2]; 200 mg BID): 70 (81) n (%)
- SRI-4 responders at Week 24 ([2]; 150 mg QD arm (46% of placebo patients)): 49%
- SRI-4 responders at Week 24 ([2]; 200 mg BID arm (46% of placebo patients)): 57%
- BICLA response rate ([2]; week 48, 150 mg QD (41% placebo arm)): 53%
- SRI-4 response rate ([2]; week 48, 150 mg QD (44% placebo arm)): 51%
- BICLA response rate ([2]; week 48, 200 mg BID (41% placebo arm)): 42%
- SRI-4 response rate ([2]; week 48, 200 mg BID (44% placebo arm)): 52%
